Assay results taken from patent US20110237538A1, “TREATMENT OF LYSOSOMAL STORAGE DISORDERS AND OTHER PROTEOSTATIC DISEASES” (SUMMIT CORPORATION PLC, priority 2008, published 2011).

Legend:
[1] = biological target: T1, wild type (wt) beta-glucocerebrosidase (Homo sapiens, UniProt P04062); test: beta-glucocerebrosidase activity assay in HL60 lysate (4MU-β-D-glc); type: biochemical; details: at a concentration of 100 μM, 0.5 mM 4MU-β-D-glc;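 note: fluorometric read-out of 4MU liberated from the substrate (ex 360 nm, em 450 nm) after 37 °C incubation, reaction stopped with sodium carbonate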
T1 construct: The lysates were used as a source for wild type (wt) beta-glucocerebrosidase; endogenous in cells; host or cells: HL60 (ECACC No. 98070106) lysate
T1 sequence (P04062 40-536): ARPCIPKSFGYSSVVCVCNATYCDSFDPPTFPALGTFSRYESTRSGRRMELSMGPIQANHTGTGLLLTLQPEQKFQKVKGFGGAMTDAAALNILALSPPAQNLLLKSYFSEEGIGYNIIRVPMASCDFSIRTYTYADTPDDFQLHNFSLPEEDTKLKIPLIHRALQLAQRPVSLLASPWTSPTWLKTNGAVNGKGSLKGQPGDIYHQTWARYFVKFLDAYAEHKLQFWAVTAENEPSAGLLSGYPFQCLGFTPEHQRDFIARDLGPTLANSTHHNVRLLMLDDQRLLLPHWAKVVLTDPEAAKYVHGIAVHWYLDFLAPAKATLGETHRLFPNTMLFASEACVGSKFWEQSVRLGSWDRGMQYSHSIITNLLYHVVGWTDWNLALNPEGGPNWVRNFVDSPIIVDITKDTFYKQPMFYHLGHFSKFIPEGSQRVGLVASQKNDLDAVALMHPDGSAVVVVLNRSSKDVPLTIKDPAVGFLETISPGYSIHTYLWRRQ

[2] = tested on: beta-glucocerebrosidase (N370S GM01873, L444P GM08752); test: enzyme enhancement assay, cell based screening for chaperones (Gaucher lymphoblasts); design: species or system human; details: Gaucher patient lymphoblasts, dosed 0.3-100 μM, 72 hr; relative to vehicle, normalised against total protein
alpha-galactosidase = test: enzyme enhancement assay, cell based screening for chaperones (Fabry lymphoblasts GM04391); design: species or system human; details: Fabry patient lymphoblasts (GM04391), dosed 0.3-100 μM, 72 hr; relative to vehicle
alpha-L-iduronidase = biological target: T2, alpha-L-iduronidase (Homo sapiens, UniProt P35475); test: inhibition of alpha-L-iduronidase (Example 3); type: biochemical
T2 sequence (P35475 28-653): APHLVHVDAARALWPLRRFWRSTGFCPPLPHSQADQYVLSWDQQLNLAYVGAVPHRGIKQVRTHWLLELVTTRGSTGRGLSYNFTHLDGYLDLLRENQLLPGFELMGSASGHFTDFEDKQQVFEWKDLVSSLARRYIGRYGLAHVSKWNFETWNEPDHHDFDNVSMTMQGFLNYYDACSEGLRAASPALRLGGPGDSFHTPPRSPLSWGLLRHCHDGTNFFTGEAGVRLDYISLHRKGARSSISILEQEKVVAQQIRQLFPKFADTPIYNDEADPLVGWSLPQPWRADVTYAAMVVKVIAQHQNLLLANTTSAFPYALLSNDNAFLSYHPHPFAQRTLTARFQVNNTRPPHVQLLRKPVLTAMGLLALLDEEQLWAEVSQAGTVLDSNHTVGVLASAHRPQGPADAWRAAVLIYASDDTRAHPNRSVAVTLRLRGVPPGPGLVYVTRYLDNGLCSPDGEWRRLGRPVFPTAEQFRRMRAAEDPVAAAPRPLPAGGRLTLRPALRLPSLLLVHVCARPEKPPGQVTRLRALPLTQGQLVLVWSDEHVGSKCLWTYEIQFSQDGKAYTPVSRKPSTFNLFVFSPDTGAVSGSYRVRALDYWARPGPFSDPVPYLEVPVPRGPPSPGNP
Text: This compound, for example, might therefore show therapeutic activity for mucopolysaccharidosis type 1.

[3] = tested on: the other 14 glycosidases described in Example 2; test: glycosidase panel of Example 2 (selectivity); type: biochemical
Experimental: The assays were conducted as described by Watson et al. 1997, Phytochemistry 46: 255-259 using p-nitrophenyl-substrates. Assays were carried out in microtitre plates. Enzymes were assayed in 0.1M citric acid/0.2M di-sodium hydrogen phosphate (Mcllvaine) buffers at the optimum pH for the enzyme. All assays were carried out at 20° C. All enzymes and substrates were purchased from Sigma Aldrich Chemicals Limited. The incubation mixture consisted of 10 μl of enzyme solution, 10 μl of the iminosugars solution (made up in deionised water at 5 mM) and 50 μl of the appropriate 5 mM p-nitrophenyl substrate made up in McIlvaine buffer at the optimum pH for the enzyme. The reactions were stopped with 0.4M glycine (pH 10.4) during the exponential phase of the reaction, which was determined at the beginning of the assay using blanks with water, which were incubated for a range of time periods to measure the reaction rate using 5 mM substrate solution. Absorbances were read at 405 nm. Water was substituted for the inhibitors in the blanks. […]

[4] = tested on: N-acetyl-β-D-glucosaminidase (Bovine kidney); test: glycosidase assay with p-nitrophenyl substrates (Example 2); type: biochemical; details: 10 μl of 5 mM iminosugar solution in 70 μl incubation mixture; 20° C.
Experimental: (§1) The assays were conducted as described by Watson et al. 1997, Phytochemistry 46: 255-259 using p-nitrophenyl-substrates. Assays were carried out in microtitre plates. Enzymes were assayed in 0.1M citric acid/0.2M di-sodium hydrogen phosphate (Mcllvaine) buffers at the optimum pH for the enzyme. All assays were carried out at 20° C. All enzymes and substrates were purchased from Sigma Aldrich Chemicals Limited. The incubation mixture consisted of 10 μl of enzyme solution, 10 μl of the iminosugars solution (made up in deionised water at 5 mM) and 50 μl of the appropriate 5 mM p-nitrophenyl substrate made up in McIlvaine buffer at the optimum pH for the enzyme. The reactions were stopped with 0.4M glycine (pH 10.4) during the exponential phase of the reaction, which was determined at the beginning of the assay using blanks with water, which were incubated for a range of time periods to measure the reaction rate using 5 mM substrate solution. Absorbances were read at 405 nm. Water was substituted for the inhibitors in the blanks.
(§2) The glycosidases used were α-D-glucosidase (yeast), α-D-glucosidase (Bacillus sterothermophilus), α-D-glucosidase (rice), amyloglucosidase (Aspergillus niger), β-D-glucosidase (almond), α-D-galactosidase (green coffee beans), β-D-galactosidase (bovine liver), α-L-fucosidase (bovine kidney), α-D-mannosidase (Jack bean), β-D-mannosidase (Cellullomonas fimi), Naringinase (Penicillium decumbens), N-acetyl-β-D-glucosaminidase (Bovine kidney), N-acetyl-β-D-glucosaminidase (Aspergillus oryzae) and N-acetyl-β-D-glucosaminidase (Jack bean)

[5] = biological target: T3, α-D-galactosidase (green coffee beans) (Coffea arabica, UniProt Q42656); test: as above; type: biochemical; details: 10 μl of 5 mM iminosugar solution in 70 μl incubation mixture; 20° C.; read-out: Promotion of glycosidase activity: α-D-galactosidase (Green coffee bean)
T3 construct: purchased Sigma Aldrich Chemicals Limited
Experimental: as §1, §2

[6] = tested on: α-D-glucosidase (Bacillus sterothermophilus); test: as above; type: biochemical; details: 10 μl of 5 mM iminosugar solution in 70 μl incubation mixture; 20° C.
Experimental: as §1, §2

[7] = biological target: T4, α-D-mannosidase (Jack bean) (Canavalia ensiformis, UniProt C0HJB3); test: as above; type: biochemical; details: 10 μl of 5 mM iminosugar solution in 70 μl incubation mixture; 20° C.
T4 construct: purchased Sigma Aldrich Chemicals Limited
T4 sequence (C0HJB3 1-981): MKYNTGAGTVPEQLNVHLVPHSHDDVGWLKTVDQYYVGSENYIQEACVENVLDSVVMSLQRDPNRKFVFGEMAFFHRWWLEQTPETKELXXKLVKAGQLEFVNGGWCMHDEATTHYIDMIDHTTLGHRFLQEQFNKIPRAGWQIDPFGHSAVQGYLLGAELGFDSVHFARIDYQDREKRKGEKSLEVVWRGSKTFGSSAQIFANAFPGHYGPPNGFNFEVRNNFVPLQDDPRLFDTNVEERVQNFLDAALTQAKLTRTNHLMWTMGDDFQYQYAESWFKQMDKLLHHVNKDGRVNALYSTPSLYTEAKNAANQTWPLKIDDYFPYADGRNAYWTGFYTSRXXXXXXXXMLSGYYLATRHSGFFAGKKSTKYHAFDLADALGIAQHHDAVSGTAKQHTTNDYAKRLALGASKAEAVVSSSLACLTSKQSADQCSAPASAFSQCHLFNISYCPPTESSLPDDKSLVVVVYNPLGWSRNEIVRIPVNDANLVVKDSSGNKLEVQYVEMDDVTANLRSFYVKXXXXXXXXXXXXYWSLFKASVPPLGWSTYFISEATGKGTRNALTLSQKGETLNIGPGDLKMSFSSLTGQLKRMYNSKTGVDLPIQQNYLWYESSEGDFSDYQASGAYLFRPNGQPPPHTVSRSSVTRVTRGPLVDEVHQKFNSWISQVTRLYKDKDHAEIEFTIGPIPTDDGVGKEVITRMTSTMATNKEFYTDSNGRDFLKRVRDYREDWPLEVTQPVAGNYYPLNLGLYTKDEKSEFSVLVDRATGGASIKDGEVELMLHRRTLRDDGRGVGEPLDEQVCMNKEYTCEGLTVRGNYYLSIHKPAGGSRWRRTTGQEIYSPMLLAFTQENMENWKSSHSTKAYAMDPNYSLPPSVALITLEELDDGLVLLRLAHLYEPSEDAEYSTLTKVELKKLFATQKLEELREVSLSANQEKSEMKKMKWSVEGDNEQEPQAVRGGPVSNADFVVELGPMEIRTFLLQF
Experimental: as §1, §2

[8] = biological target: T5, Jack bean α-D-mannosidase (Canavalia ensiformis, UniProt C0HJB3); test: α-mannosidase activity assay with p-nitrophenyl-α-D-mannopyranoside (Example 1); type: biochemical; details: Jack Bean α-mannosidase, p-nitrophenyl-α-D-mannopyranoside as the substrate
T5 construct: purchased Sigma M7257
T5 sequence (C0HJB3 1-981): T4 sequence (C0HJB3 1-981)
Experimental: Solutions of 0.2M Mcllvane buffer at pH 4.5 and 5 mM p-nitrophenyl-α-D-mannopyranoside (Sigma, N2127), dissolved in the buffer, were prepared. A solution of Jack bean α-D-mannosidase enzyme (Sigma, M7257, 22 Units/mg, 6.2 mg/ml.) was also prepared at 0.6 Units/ml in the buffer.
The incubation mixture consisted of 10 μl enzyme solution, 10 μl of 1 mg/ml aqueous iminosugar solution and 50 μl of 5 mM substrate made up in buffer at the optimum pH for the enzyme. The reactions were stopped by addition of 70 μl 0.4M glycine (pH 10.4) during the exponential phase of the reaction, which had been determined at the beginning using uninhibited assays in which water replaced inhibitor. Final absorbances were read at 405 nm using a Versamax microplate reader (Molecular Devices). Assays were carried out in triplicate, and the values given are means of the three replicates. Results were expressed as a percentage of uninhibited assays in which water replaced inhibitor.

T3 sequence (Q42656 16-378): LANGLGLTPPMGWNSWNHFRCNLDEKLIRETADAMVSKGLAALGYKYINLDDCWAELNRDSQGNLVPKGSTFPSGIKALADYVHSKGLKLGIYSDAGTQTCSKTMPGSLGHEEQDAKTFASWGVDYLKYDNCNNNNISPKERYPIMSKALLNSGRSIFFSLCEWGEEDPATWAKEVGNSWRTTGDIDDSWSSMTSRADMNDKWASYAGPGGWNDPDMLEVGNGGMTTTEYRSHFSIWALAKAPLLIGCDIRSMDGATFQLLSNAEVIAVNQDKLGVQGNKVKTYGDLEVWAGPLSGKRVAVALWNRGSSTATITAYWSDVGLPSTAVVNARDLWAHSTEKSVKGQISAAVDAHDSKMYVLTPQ

Compound	Promotion of glycosidase activity: N-acetyl-β-D-gluc (Bovine kidney) [4]	Promotion of glycosidase activity: α-D-glucosidase (Bacillus sterothermophilus) [6]	Promotion of glycosidase activity: α-D-mannosidase (Jack bean) [7]	other results
O[C@@H]1C[C@H]2CC[C@](O)(N2)[C@H]1O [Compound 20, (1R,2S,3R,5R)-8-azabicyclo[3.2.1]octane-1,2,3-triol]	–	–	–	inhibition at 100 µM [1]: > 50%; increased enzyme activity (beta-glucocerebrosidase) [2]: > 20%; increased enzyme activity (alpha-galactosidase) (alpha-galactosidase): > 20%
O=C(O)[C@@H]1[C@@H](O)[C@H](O)[C@H]2[C@@H](O)CCN21 [Compound 56, (1R,2R,3S,7S,7aR)-1,2,7-trihydroxyhexahydro-1H-pyrrolizine-3-carboxylic acid]	–	–	–	inhibition of alpha-L-iduronidase (in words) (alpha-L-iduronidase): potently inhibited; inhibition of the other 14 glycosidases described in Example 2 (in words) [3]: none
CCCC[N+]1([O-])C[C@@H](O)[C@H](O)[C@H]1CO (stereo partly drawn) [Compound 95, (2R,3R,4R)-1-butyl-3,4-dihydroxy-2-(hydroxymethyl)pyrrolidine 1-oxide]	46 % increase in absorbance compared to the water controls	53 % increase in absorbance compared to the water controls	86 % increase in absorbance compared to the water controls	activation at 714 µM [5]: 35%
CCCC[N@+]1([O-])C[C@H](O)[C@@H](O)[C@H]1CO [Compound 165, (1S,2R,3S,4S)-1-butyl-3,4-dihydroxy-2-(hydroxymethyl)pyrrolidine 1-oxide]	76 % increase in absorbance compared to the water controls	72 % increase in absorbance compared to the water controls	43 % increase in absorbance compared to the water controls	–
CCCC[N@@+]1([O-])C[C@@H](O)[C@H](O)[C@@H]1CO [Compound 178, (1R,2S,3R,4R)-1-butyl-3,4-dihydroxy-2-(hydroxymethyl)pyrrolidine 1-oxide]	85 % increase in absorbance compared to the water controls	161 % increase in absorbance compared to the water controls	35 % increase in absorbance compared to the water controls	–
C[C@@]1(O)CN[C@H](CO)[C@@H](O)[C@@H]1O [Compound 201, (2R,3R,4S,5R)-2-(hydroxymethyl)-5-methylpiperidine-3,4,5-triol]	–	–	–	promotion of the mannosidase activity (in words) [8]: promotion of the mannosidase activity; increased enzyme activity (beta-glucocerebrosidase) [2]: > 201%; increased enzyme activity (alpha-galactosidase) (alpha-galactosidase): > 201%
CCCCCCCCCN1C[C@@H](O)[C@@H](O)[C@@H]1[C@@H](O)CO [Compound 316, (2S,3S,4R)-2-((R)-1,2-dihydroxyethyl)-1-nonylpyrrolidine-3,4-diol]	94 % increase in absorbance compared to the water controls	167 % increase in absorbance compared to the water controls	–	activation at 714 µM [5]: 42%
